In ChEMBL document CHEMBL1132591, “Synthesis of retinoid X receptor-specific ligands that are potent inducers of adipogenesis in 3T3-L1 cells” (J Med Chem, 1999):

Tests used:
[1] = biological target: T1, Retinoic acid receptor RXR-gamma (Homo sapiens, UniProt P48443); assay: Transcriptional activity was evaluated in CV-1 cells transfected with expression vector for Retinoic acid receptor RXR-gamma; format: functional, cell-based
T1 sequence (P48443 whole entry): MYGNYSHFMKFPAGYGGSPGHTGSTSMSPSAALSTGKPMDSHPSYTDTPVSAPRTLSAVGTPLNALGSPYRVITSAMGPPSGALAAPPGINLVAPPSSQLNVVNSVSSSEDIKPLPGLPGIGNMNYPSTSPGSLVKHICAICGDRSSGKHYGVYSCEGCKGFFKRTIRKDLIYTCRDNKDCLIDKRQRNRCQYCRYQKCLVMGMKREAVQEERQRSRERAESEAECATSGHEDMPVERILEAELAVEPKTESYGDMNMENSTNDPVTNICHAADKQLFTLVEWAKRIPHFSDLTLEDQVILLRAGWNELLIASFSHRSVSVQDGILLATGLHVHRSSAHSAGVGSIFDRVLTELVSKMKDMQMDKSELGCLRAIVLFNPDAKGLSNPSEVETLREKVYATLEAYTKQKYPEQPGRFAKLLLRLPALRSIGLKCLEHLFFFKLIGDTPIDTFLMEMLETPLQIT

[2] = biological target: T1, Retinoic acid receptor RXR-gamma; assay: Binding affinity towards recombinantly expressed Retinoic acid receptor RXR-gamma in baculoviral system, by using 5 nM [3H]targretin in a competitive binding assay
[3] = biological target: T2, Retinoic acid receptor RXR-beta (Homo sapiens, UniProt P28702); assay: Binding affinity towards recombinantly expressed Retinoic acid receptor RXR-beta in baculoviral system, by using 5 nM [3H]targretin in a competitive binding assay
T2 sequence (P28702 whole entry): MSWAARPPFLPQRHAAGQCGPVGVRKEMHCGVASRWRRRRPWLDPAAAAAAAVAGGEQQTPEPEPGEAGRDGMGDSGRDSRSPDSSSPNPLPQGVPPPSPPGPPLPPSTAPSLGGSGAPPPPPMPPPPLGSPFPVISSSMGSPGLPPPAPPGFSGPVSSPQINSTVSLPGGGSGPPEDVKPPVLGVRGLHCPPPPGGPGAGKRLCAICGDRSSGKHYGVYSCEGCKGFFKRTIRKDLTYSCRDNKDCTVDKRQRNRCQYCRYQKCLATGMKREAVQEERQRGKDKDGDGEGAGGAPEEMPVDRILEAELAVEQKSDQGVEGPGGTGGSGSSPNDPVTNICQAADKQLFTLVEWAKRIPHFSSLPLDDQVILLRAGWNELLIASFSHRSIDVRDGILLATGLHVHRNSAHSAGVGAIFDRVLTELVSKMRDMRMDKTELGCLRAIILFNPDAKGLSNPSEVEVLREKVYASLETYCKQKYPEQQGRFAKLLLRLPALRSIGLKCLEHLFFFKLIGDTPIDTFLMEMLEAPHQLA

[4] = biological target: T2, Retinoic acid receptor RXR-beta; assay: Transcriptional activity was evaluated in CV-1 cells transfected with expression vector for Retinoic acid receptor RXR-beta; format: functional, cell-based
[5] = biological target: T3, Retinoic acid receptor RXR-alpha (Homo sapiens, UniProt P19793); assay: Transcriptional activity was evaluated in CV-1 cells transfected with expression vector for Retinoic acid receptor RXR-alpha; format: functional, cell-based
T3 sequence (P19793 whole entry): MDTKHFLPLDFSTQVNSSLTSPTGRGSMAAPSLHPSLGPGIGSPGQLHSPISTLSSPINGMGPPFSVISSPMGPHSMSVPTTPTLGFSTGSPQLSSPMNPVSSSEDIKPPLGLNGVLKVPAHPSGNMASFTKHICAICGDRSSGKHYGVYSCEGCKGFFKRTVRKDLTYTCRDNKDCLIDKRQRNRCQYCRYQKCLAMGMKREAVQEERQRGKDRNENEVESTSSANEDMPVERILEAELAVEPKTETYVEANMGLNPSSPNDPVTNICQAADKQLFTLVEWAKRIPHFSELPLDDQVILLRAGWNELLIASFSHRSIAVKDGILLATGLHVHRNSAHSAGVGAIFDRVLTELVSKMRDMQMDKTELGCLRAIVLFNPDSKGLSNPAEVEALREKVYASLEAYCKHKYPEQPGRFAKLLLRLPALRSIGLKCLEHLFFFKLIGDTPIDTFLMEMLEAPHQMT

[6] = biological target: T3, Retinoic acid receptor RXR-alpha; assay: Binding affinity towards recombinantly expressed Retinoic acid receptor RXR-alpha in baculoviral system, by using 5 nM [3H]targretin in a competitive binding assay
[7] = biological target: T4, Retinoic acid receptor alpha (Homo sapiens) (UniProt P10276); assay: Percent transcriptional activation relative to ATRA in CV-1 cells expressing Retinoic acid receptor RAR alpha; format: functional, cell-based
T4 sequence (whole entry): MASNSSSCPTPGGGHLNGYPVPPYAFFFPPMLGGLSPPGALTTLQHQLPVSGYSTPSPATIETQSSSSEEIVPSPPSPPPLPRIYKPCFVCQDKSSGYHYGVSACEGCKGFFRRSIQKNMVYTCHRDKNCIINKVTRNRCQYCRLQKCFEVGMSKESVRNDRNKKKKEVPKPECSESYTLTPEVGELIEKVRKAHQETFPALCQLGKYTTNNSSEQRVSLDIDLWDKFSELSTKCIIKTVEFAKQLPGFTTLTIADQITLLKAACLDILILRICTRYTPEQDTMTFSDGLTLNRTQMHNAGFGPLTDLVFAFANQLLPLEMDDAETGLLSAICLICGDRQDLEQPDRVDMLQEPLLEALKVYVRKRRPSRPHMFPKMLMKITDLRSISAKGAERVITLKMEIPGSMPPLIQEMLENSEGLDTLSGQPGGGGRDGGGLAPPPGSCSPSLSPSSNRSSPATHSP

[8] = biological target: T5, Retinoic acid receptor beta (Homo sapiens, UniProt P10826); assay: Inhibition of [3H]ATRA binding to baculovirus expressed Retinoic acid receptor RAR beta
T5 sequence (P10826 whole entry): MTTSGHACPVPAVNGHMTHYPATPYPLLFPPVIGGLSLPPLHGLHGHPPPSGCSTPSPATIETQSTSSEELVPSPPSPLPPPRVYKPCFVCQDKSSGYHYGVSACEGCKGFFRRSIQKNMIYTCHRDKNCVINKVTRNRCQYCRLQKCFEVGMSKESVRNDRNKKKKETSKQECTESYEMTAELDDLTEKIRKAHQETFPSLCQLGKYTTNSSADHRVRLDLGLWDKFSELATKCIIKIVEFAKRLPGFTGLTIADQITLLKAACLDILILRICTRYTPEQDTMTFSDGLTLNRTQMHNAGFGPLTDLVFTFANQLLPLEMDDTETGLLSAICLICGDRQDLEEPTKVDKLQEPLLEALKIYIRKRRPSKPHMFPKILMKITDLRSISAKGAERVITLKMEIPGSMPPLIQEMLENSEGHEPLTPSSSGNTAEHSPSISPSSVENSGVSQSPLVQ

[9] = biological target: T6, Retinoic acid receptor gamma (Homo sapiens, UniProt P13631); assay: Inhibition of [3H]-ATRA binding to baculovirus expressed Retinoic acid receptor RAR gamma
T6 sequence (P13631 whole entry): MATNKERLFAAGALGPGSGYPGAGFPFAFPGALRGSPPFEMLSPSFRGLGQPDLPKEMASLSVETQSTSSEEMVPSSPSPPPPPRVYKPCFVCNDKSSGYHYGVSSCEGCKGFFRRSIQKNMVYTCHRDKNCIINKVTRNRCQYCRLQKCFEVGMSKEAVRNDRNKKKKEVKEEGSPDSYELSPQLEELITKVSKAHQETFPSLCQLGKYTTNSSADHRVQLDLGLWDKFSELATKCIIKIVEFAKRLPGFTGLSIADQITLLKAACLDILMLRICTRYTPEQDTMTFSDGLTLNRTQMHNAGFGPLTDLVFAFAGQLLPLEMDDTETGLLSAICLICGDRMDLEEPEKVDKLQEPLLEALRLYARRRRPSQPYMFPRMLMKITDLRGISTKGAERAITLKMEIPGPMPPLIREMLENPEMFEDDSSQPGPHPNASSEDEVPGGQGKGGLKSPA

[10] = biological target: T7, Retinoic acid receptor alpha (Homo sapiens, UniProt P10276); assay: Inhibition of [3H]ATRA binding to baculovirus expressed Retinoic acid receptor RAR alpha
T7 sequence (P10276 whole entry): T4 sequence (whole entry)

[11] = biological target: T8, Retinoic acid receptor RXR-beta (Homo sapiens) (UniProt P28702); assay: Percent transcriptional activation relative to ATRA in CV-1 cells expressing Retinoid X receptor RXR beta; format: functional, cell-based
T8 sequence (whole entry): T2 sequence (P28702 whole entry)

[12] = biological target: T9, Retinoic acid receptor gamma (Homo sapiens) (UniProt P13631); assay: Percent transcriptional activation relative to ATRA in CV-1 cells expressing Retinoic acid receptor RAR gamma; format: functional, cell-based
T9 sequence (whole entry): T6 sequence (P13631 whole entry)

[13] = biological target: T10, Retinoic acid receptor beta (Homo sapiens) (UniProt P10826); assay: Percent transcriptional activation relative to ATRA in CV-1 cells expressing Retinoic acid receptor RAR beta; format: functional, cell-based
T10 sequence (whole entry): T5 sequence (P10826 whole entry)

| SMILES | EC50 [1] [nM] | Ki [2] [nM] | Ki [3] [nM] | EC50 [4] [nM] | EC50 [5] [nM] | Ki [6] [nM] | Efficacy [7] [%] | Ki [8] [nM] | Ki [9] [nM] | Ki [10] [nM] | Efficacy [11] [%] | Efficacy [12] [%] | Efficacy [13] [%] |
| --- | --- | --- | --- | --- | --- | --- | --- | --- | --- | --- | --- | --- | --- |
| CCCCO/N=C(\c1ccc(C(=O)O)cc1)c1cc2c(cc1C)C(C)(C)CCC2(C)C | 99 | 224 | 283 | 157 | 86 | 177 |  |  |  |  |  |  |  |
| CCO/N=C(\c1ccc(C(=O)O)cc1)c1cc2c(cc1C)C(C)(C)CCC2(C)C | 9 | 42 | 58 | 12 | 5 | 26 |  |  |  |  |  |  |  |
| CC1(C)CCC(C)(C)c2cc(/C(=N/O)c3ccc(C(=O)O)cc3)ccc21 | 2890 | 5050 | 3360 | > 10000 | 2960 | 4230 |  |  |  |  |  |  |  |
| C=CCO/N=C(\c1ccc(C(=O)O)cc1)c1cc2c(cc1C)C(C)(C)CCC2(C)C | 7 | 80 | 15 | 18 | 6 | 7 |  |  |  |  |  |  |  |
| CO/N=C(\c1ccc(C(=O)O)cc1)c1cc2c(cc1C)C(C)(C)CCC2(C)C | 4 | 8 | 8 | 10 | 5 | 9 | 2 | > 10000 | > 10000 | > 10000 | 90 | 2 | 5 |
| CO/N=C(/c1ccc(C(=O)O)cc1)c1cc2c(cc1C)C(C)(C)CCC2(C)C | 254 | 238 | > 1000 | 377 | 384 | 394 |  |  |  |  |  |  |  |
| Cc1cc2c(cc1/C(=N/OCC(=O)O)c1ccc(C(=O)O)cc1)C(C)(C)CCC2(C)C | 1380 | > 1000 | > 1000 | 1380 | 713 | > 1000 |  |  |  |  |  |  |  |
| CCCO/N=C(\c1ccc(C(=O)O)cc1)c1cc2c(cc1C)C(C)(C)CCC2(C)C | 28 | 57 | 61 | 37 | 32 | 6 |  |  |  |  |  |  |  |
| Cc1cc2c(cc1/C(=N\OC(C)(C)C)c1ccc(C(=O)O)cc1)C(C)(C)CCC2(C)C | > 10000 | > 1000 | > 1000 | > 10000 | > 10000 | > 1000 |  |  |  |  |  |  |  |
| Cc1cc2c(cc1/C(=N/OCCN)c1ccc(C(=O)O)cc1)C(C)(C)CCC2(C)C | 306 | > 1000 | > 1000 | 61 | 350 | > 1000 |  |  |  |  |  |  |  |
| Cc1cc2c(cc1/C(=N/OC(C)(C)C)c1ccc(C(=O)O)cc1)C(C)(C)CCC2(C)C | > 10000 | 445 | 623 | > 10000 | > 10000 | 484 |  |  |  |  |  |  |  |
| CCO/N=C(/c1ccc(C(=O)O)cc1)c1cc2c(cc1C)C(C)(C)CCC2(C)C | > 10000 | 467 | > 1000 | > 10000 | > 10000 | 620 |  |  |  |  |  |  |  |
| CC1(C)CCC(C)(C)c2cc(/C(=N/O)c3ccc(C(=O)O)cc3)c(Br)cc21 | 26 | 57 | 6 | 32 | 27 | 12 |  |  |  |  |  |  |  |
| Cc1cc2c(cc1/C(=N/OCC#N)c1ccc(C(=O)O)cc1)C(C)(C)CCC2(C)C | 11 | 14 | 14 | 25 | 12 | 11 |  |  |  |  |  |  |  |
| Cc1cc2c(cc1/C(=N\O)c1ccc(C(=O)O)cc1)C(C)(C)CCC2(C)C | 34 | 209 | 120 | 165 |  |  |  |  |  |  |  |  |  |
| CO/N=C(/c1ccc(C(=O)O)cc1)c1ccc2c(c1)C(C)(C)CCC2(C)C | 206 | 558 | 363 | 207 | 253 | > 1000 |  |  |  |  |  |  |  |
| Cc1cc2c(cc1/C(=N/O)c1ccc(C(=O)O)cc1)C(C)(C)CCC2(C)C | 7 | 5 | 5 | 14 |  |  | 6 |  |  |  | 81 | 13 | 10 |
